Drawing on PubChem BioAssay (NCI), this text covers GI50 and TGI for three molecules.

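Grown in 96-well plates, cells were treated for 48 hours with each compound at five concentrations. Insufficient inhibition: endpoint recorded as highest concentration tested. GI50: concentration for 50% inhibition of growth. At the TGI there is no net growth.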

The assay has as its system MDA-MB-468 breast. Description: NCI tumour cell line growth inhibition, 48 h.

For the molecule `CN(C)C1C(=O)C(C(N)=O)=C(O)C2(O)C(=O)C3=C(O)c4c(O)cccc4C(C)(O)C3CC12.[Cl][Sb]([Cl])[Cl]` (stereo unspecified), the GI50 was 2500 nM and the TGI is 8830 nM.
The like results for `CC[n+]1c(-c2ccccc2)c2cc(N)ccc2c2ccc(N)cc21` were, in that order, 160 nM and 609 nM.
Turning to `CCOC(=O)[C@@H](C)C[C@H](Cc1ccccc1)NC(=O)c1csc([C@@H](C[C@H](C(C)C)N(C)C(=O)CNC(=O)[C@H]2CCCCN2C)OC(C)=O)n1`, the GI50 is 216 nM and the TGI was 736 nM.
